For this assay, the target named is Neuropeptide FF receptor 1 (Homo sapiens, UniProt Q9GZQ6). The assay is described as follows: Competitive antagonist activity at human NPFF1 receptor expressed in COS1 cells assessed as inhibition of NPVF-induced [3H]inositol phosphate accumulation after 2 hrs by liquid scintillation counting.

pKd: −log10 of the molar value.

Neuropeptide FF receptor 1, sequence (Q9GZQ6 whole entry): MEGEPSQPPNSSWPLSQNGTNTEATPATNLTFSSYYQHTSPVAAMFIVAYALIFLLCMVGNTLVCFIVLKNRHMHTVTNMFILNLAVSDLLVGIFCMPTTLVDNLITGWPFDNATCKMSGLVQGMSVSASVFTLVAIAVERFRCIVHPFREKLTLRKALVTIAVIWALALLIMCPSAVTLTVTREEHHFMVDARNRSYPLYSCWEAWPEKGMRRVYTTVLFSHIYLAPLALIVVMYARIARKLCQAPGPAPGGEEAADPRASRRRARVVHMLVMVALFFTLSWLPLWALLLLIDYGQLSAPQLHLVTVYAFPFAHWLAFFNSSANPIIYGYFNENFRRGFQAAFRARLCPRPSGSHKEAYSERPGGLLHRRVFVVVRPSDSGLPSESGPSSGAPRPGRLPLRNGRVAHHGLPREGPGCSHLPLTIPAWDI

Usually pKd stands for the Kd on a negative log10 scale, so that one unit is a factor of ten. For `NC(N)=NN=CC12CC3CC(CC(C3)C1)C2`, the pKd was 7.38.
